In experiment [1] the target is Sigma1 (σ1) (Homo sapiens, UniProt Q99720). Nature of the experiment: Radioligand binding assay (NIMH PDSP).
Experiment [2] deals with Sigma1 (σ1). As to the kind of experiment: Radioligand binding assay (NIMH PDSP). On the set-up: species or system human. Conditions: ratio of Ki to the IC50 for EU93-108 (555 nM) at GluN2B.
For another experiment, the system named is C57BL/6J mice. Nature of the experiment: Preestablished morphine tolerance (tolerant mice, tail immersion test). Type of experiment: in vivo. Conditions: males 10 mg/kg, females 20 mg/kg i.p. The source says:
We next wanted to assess EU93-108 for effects on other facets of tolerance. Specifically, we were interested in whether EU93-108 could increase tail flick latency in mice that were already tolerant to morphine (i.e., preestablished tolerance). To assess the effect of EU93-108 on preestablished tolerance, five groups were used (n = 8 per group): vehicle/saline, vehicle/morphine, ifenprodil/morphine, EU93-108/saline, and EU93-108/morphine. All groups except for the vehicle/saline control group were administered morphine three times per day (according to the stair stepping protocol outlined in Figure 11) at gradually increasing doses from 25 to 40 mg/kg three times a day at 3–4 h intervals for three consecutive days until tolerance was observed on day 4 (Figure 12, black circles).
Figure 11 Dosing regimen to assess effects of EU93-108 on tolerant mice. TIT = tail immersion test. All mice received morphine or saline three times a day according to the protocol in Figure 9. Doses of morphine are shown above the arrows, in mg/kg. Once tolerance was established on day 4, the mice were randomly assigned to receive vehicle, EU93-108, or ifenprodil once a day for two consecutive days. […]
Mouse weights were recorded on the day of each experiment. […] Three recordings were taken for each mouse, and each data point is expressed as the mean of the three recordings. […] The identities were not decoded until the data were analyzed.
Prism 9.3.1 software (GraphPad, San Diego, CA) was used for all data analysis and visualization. Data for intrinsic antinociception was analyzed using one-way ANOVA and Dunnett’s post hoc test for multiple comparisons where each group was compared to vehicle. Data for acute morphine potentiation experiments were analyzed using one-way ANOVA and Tukey’s post hoc test for multiple comparisons was also used, where each group mean was compared to the mean of every other group. Data for tolerance experiments were analyzed using repeated measures two-way ANOVA and Bonferroni post hoc analysis. […]

The next experiment relates to PBR. As to the kind of experiment: Radioligand binding assay (NIMH PDSP). More on the design: species or system human. To be noted: primary screen, 10 µM, quadruplicate. The method, then:
(§1) Conventional competition and saturation radioligand binding assays were used to determine the affinities of reference standards and EU93-108. Experiments were carried out by the NIMH Psychoactive Drug Screening Program (PDSP) and were performed as previously described.[123]
(§2) The detailed experimental protocols for the radioligand assays are available on the NIMH PDSP website at https://pdsp.unc.edu/pdspweb/content/UNC-CH%20Protocol%20Book.pdf.
(§3) Receptor Mean % Receptor Mean % Receptor Mean %
(§4) Inhibition Inhibition Inhibition
(§5) Supplemental Table S4. Off-Target Actions of EU93-108: Primary GPCR Screen. Cloned human molecular targets were individually expressed and submitted to molecular target-based screening with initial screens performed at a final concentration of 10 µM in quadruplicate. Complete protocols for the assays have been previously published (Besnard J et al. 2012). Where inhibition greater than 50% was measured, secondary screens were performed wherein Ki values were calculated (see Table 4).

A further experiment concerns GABAA. As to the kind of experiment: Radioligand binding assay (NIMH PDSP). More on the design: species or system human. Conditions: primary screen, 10 µM, quadruplicate. How it is done:
as §1, §2, §3, §4, §5

A further experiment addresses GluN1/GluN2C (Rattus norvegicus, UniProt P35439+Q00961).
Another experiment addresses T1, Alpha2B (α2B) (Homo sapiens, UniProt P18089).
T1 sequence (P18089 1-450): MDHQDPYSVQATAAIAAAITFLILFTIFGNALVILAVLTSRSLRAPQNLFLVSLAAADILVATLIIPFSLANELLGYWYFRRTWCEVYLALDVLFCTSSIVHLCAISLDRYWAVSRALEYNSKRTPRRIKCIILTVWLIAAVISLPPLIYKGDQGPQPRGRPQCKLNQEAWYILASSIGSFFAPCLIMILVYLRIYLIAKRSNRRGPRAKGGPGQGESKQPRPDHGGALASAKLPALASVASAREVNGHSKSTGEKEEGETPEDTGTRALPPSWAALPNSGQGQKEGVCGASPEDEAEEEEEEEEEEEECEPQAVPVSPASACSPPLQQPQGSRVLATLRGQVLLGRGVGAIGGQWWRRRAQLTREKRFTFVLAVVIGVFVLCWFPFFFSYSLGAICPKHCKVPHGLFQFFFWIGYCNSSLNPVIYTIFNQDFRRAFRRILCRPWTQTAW
Nature of the experiment: Radioligand binding assay (NIMH PDSP). How it is done: (§6) Compound EU93-108 was also tested for inhibition of binding of probes to a range of GPCRs and other targets (Table 4 and Supporting Table S4). […] EU93-108 produced significant displacement of binding probes for the 5-HT2 receptors and α-1-adrenergic receptors, as well as D3, H1, and σ1 receptors. Concentration–response binding competition curves for these targets were used to determine Ki values (Table 4). Given that the brain concentration of EU93-108 achieved 30 min post i.p. injection is 18 μM (Figure 6), the doses that yield our desired antinociceptive effects may engage some of the receptors listed in Table 4.
as §1, §2, §3, §4, §5

Another experiment addresses D3 (Homo sapiens, UniProt P35462). Nature of the experiment: Radioligand binding assay (NIMH PDSP). The method, then: as §6, §1, §2, §3, §4, §5
Another experiment concerns the target 5-HT2A (Homo sapiens, UniProt P28223). As to the kind of experiment: Radioligand binding assay (NIMH PDSP). How it is done: as §6, §1, §2, §3, §4, §5
The mark [3] stands for this setting: primary screen, 10 µM, quadruplicate.
The mark [4] stands for this setting: secondary screen, binding competition curve.
Where [5] appears, read: ratio of Ki to the IC50 for EU93-108 (555 nM) at GluN2B.

5-HT2A, sequence (P28223 whole entry): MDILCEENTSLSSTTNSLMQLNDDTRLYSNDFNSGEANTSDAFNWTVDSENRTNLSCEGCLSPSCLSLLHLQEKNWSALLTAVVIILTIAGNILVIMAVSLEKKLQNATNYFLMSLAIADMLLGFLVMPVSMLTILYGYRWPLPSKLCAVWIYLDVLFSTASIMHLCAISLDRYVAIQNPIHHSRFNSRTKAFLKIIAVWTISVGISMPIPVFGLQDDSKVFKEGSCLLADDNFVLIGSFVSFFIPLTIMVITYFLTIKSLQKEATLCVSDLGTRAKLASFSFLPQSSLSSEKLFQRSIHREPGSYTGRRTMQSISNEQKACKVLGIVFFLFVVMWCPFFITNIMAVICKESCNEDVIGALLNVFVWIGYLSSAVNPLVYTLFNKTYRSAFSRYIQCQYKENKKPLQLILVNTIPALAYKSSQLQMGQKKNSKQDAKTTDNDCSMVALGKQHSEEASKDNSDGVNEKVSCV
D3, sequence (P35462 whole entry): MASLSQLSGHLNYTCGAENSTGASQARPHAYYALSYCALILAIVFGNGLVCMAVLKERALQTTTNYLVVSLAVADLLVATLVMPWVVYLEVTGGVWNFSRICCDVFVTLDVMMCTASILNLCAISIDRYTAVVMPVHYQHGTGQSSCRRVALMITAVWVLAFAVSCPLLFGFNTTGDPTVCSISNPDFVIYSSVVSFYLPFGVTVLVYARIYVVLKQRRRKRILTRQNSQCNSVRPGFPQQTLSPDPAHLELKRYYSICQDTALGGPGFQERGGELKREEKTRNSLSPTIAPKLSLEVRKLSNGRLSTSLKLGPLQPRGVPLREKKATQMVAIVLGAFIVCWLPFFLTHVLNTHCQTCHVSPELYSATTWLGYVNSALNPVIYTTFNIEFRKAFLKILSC
GluN1/GluN2C, sequence (Q00961 20-1237, other chains not shown): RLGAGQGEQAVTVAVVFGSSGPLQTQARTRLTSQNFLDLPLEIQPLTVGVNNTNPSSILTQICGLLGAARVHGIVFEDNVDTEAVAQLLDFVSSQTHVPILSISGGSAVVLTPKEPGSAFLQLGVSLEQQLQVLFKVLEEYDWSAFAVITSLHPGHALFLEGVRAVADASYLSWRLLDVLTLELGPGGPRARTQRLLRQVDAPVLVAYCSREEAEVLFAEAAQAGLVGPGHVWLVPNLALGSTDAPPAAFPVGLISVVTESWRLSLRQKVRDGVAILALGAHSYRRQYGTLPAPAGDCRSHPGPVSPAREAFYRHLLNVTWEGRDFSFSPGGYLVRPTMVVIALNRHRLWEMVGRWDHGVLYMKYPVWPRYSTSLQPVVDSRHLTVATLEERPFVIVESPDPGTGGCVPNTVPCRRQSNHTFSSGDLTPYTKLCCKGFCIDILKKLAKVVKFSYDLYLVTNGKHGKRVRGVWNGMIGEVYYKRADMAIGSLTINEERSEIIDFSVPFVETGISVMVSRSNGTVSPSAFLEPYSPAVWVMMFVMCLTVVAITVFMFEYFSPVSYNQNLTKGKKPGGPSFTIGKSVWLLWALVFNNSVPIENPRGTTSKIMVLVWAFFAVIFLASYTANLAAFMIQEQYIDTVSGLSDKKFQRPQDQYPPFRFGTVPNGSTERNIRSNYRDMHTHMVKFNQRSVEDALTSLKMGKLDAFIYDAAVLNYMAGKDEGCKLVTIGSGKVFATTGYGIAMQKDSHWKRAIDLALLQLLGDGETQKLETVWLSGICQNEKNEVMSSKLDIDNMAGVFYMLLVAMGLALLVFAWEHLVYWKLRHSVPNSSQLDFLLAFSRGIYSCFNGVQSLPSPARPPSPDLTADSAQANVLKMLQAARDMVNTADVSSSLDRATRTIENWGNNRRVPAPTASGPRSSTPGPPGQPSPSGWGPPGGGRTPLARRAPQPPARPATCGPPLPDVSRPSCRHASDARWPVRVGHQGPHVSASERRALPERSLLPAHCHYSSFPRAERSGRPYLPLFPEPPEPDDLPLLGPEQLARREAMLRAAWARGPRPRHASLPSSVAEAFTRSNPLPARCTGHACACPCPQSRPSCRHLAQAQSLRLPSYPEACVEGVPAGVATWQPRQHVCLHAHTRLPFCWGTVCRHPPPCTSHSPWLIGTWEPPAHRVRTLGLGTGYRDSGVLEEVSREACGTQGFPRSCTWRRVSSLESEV
Sigma1 (σ1) (Homo sapiens, UniProt Q99720), sequence (Q99720 whole entry): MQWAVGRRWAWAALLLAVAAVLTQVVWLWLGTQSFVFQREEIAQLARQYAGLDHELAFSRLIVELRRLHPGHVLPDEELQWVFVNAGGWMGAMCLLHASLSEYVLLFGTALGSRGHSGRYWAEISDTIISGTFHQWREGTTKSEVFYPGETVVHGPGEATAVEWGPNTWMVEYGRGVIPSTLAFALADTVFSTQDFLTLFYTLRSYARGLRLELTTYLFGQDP

In the case of `CS(=O)(=O)Nc1ccc(OC[C@@H](O)CN2CCN(c3ccc(F)c(F)c3)CC2)cc1` [EU93-108, (S)-N-(4-(3-(4-(3,4-Difluorophenyl)piperazin-1-yl)-2-hydroxypropoxy)phenyl)methanesulfonamide], the inhibition at 10 µM is 69.2% on Sigma1 (σ1) [1] (setting [3]); 5.3 ± 2.2% at GluN1/GluN2C (read-out: Mean % Inhibition by 10 μM EU93-108); 68% on Alpha2B (α2B) (setting [3]); 67.1% at D3 (setting [3]); 83.8% on 5-HT2A (setting [3]). Also, the Ki on Sigma1 (σ1) [1] (setting [4]) amounted to 505 nM; on Alpha2B (α2B) (setting [4]) it was 728 nM; on D3 (setting [4]), 190 nM; on 5-HT2A (setting [4]), 490 nM. Besides, the “Ki/IC50 of EU93-108” value turned out to be 0.91 at Sigma1 (σ1) [2], 1.31 at Alpha2B (α2B) (setting [5]), 0.34 on D3 (setting [5]) and 0.88 on 5-HT2A (setting [5]). In addition, the “tail flick latency in morphine-tolerant mice, day 5 vs day 4” value is “did not show a further decrease in latency on day 5” in the experiment on C57BL/6J mice (co-administered with morphine) and “most significant decrease in latency” in the experiment on C57BL/6J mice (given with saline (no morphine)). Also, the entries for the “Mean % Inhibition” value in the experiment with PBR and with GABAA were -0.34% and 1.91%, respectively. At GluN1/GluN2C (agonist 100 µM glutamate, 30 µM glycine, mean ± SEM), the “% Control 10 µM EU93-108” value is reported as 97 ± 2.8%.

A word on the inhibition: it is the share of the control response that was lost under treatment. As usually defined, the Ki is a dissociation constant, usually derived from enzyme kinetics or from competition with a known ligand. A higher Ki goes with a looser hold on the target.

Values taken from publication PMC9983021, “Novel GluN2B-Selective NMDA Receptor Negative Allosteric Modulator Possesses Intrinsic Analgesic Properties and Enhances Analgesia of Morphine in a Rodent Tail Flick Pain Model” (ACS Chemical Neuroscience, 2023).
